Several values for one entry are separate records, joined by “and”; a condition that tells them apart may be missing. Identical values can stand only once. Like-named read-outs stand apart in the source and are kept apart here.
Experiments:
His-tagged BCL-xL = target: T1, His-tagged BCL-xL (Homo sapiens, UniProt Q07817); test: AlphaScreen competitive binary binding, BCL-xL (biotin-BAD peptide); details: for inhibition at 0.000305176 µM / inhibition at 0.0012207 µM / inhibition at 0.00488281 µM / inhibition at 0.0195312 µM / inhibition at 0.078125 µM / inhibition at 0.3125 µM / inhibition at 1.25 µM / inhibition at 5 µM: read-out: Alpha signal normalised to Maximum/Minimum (inhibition)
T1 construct: purchased Sigma-Aldrich SRP0187
T1 sequence (Q07817 whole entry): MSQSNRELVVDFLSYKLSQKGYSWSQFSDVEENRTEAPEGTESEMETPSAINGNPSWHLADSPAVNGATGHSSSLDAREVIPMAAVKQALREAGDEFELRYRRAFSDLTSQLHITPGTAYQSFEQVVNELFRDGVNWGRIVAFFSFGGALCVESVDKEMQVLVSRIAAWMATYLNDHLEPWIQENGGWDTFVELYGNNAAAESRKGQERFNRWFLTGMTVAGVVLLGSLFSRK
Method: (§1) The reagents were diluted in a buffer containing 250 mM HEPES pH 7.5, 1 M NaCl, 1% BSA, and 0.05% Tween-80. His-tagged BCL-xL (0.5 nM, Cat. No. SRP0187, Sigma-Aldrich) or BCL-2 (1 nM, Cat. No. SRP0186, Sigma-Aldrich) were incubated with serial diluted 753a or 753b and 2 nM biotin-tagged BAD (biotin-[…] amino-terminal, AnaSpec, for BCL-xL) or 10 nM BIM peptides (biotin-[…] N-terminal, AnaSpec, for BCL-2) to a final volume of 40 µl in a 96-well PCR plate. […] After incubation for 2 h, 5 µl 6× His-acceptor beads (Cat. No. AL128M, PerkinElmer) were added to each well at 20 µg/ml final concentration and incubated for 1 h. Then 5 µl streptavidin-donor beads were added (Cat. No. 6760002, PerkinElmer) to each well at 20 µg/ml final concentration and incubated for 45 min. At the end of the incubation period, 17 µl of each sample was transferred in adjacent wells of 384-well proxy plate (Cat. No. 6008280, PerkinElmer). The plate was scanned using the Alpha program on Biotek’s Synergy Neo2 multimode plate reader. The inhibition constant (Ki) was calculated using the non-linear regression, one site, competitive binding, Fit Ki function on GraphPad Prism 9 software, based on experimentally determined dissociation constant (Kd) for each protein–peptide pair.

His-tagged BCL-2 = target: T2, His-tagged BCL-2 (Homo sapiens, UniProt P10415); test: AlphaScreen competitive binary binding, BCL-2 (biotin-BIM peptide); details: for Alpha signal normalised to Maximum/Minimum (inhibition): in % (unit assumed)
T2 construct: purchased Sigma-Aldrich SRP0186
T2 sequence (P10415 whole entry): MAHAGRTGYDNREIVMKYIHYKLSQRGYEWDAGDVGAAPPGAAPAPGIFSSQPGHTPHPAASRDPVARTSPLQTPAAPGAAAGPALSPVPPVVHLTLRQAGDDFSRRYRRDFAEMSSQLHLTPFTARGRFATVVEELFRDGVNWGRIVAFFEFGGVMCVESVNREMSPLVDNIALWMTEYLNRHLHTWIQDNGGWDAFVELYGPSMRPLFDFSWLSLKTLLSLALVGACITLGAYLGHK
Method: as §1

- Alpha signal normalised to Maximum/Minimum (inhibition) (His-tagged BCL-xL; BCL-xL Rep-1, 0.000305176 uM, 0.000305176 µM): 28.4807
- inhibition at 0.000305176 µM (His-tagged BCL-xL; BCL-xL Rep-1, 0.000305176 uM): 32%
- Alpha signal normalised to Maximum/Minimum (inhibition) (His-tagged BCL-xL; BCL-xL Rep-1, 0.0012207 uM, 0.0012207 µM): 28.8475
- inhibition at 0.0012207 µM (His-tagged BCL-xL; BCL-xL Rep-1, 0.0012207 uM): 27.8%
- Alpha signal normalised to Maximum/Minimum (inhibition) (His-tagged BCL-xL; BCL-xL Rep-1, 0.00488281 uM, 0.00488281 µM): 50.9941
- inhibition at 0.00488281 µM (His-tagged BCL-xL; BCL-xL Rep-1, 0.00488281 uM): 46.4%
- Alpha signal normalised to Maximum/Minimum (inhibition) (His-tagged BCL-xL; BCL-xL Rep-1, 0.0195312 uM, 0.0195312 µM): 73.9595
- inhibition at 0.0195312 µM (His-tagged BCL-xL; BCL-xL Rep-1, 0.0195312 uM): 70.8%
- Alpha signal normalised to Maximum/Minimum (inhibition) (His-tagged BCL-xL; BCL-xL Rep-1, 0.078125 uM, 0.078125 µM): 89.8384
- inhibition at 0.078125 µM (His-tagged BCL-xL; BCL-xL Rep-1, 0.078125 uM): 90.1%
- Alpha signal normalised to Maximum/Minimum (inhibition) (His-tagged BCL-xL; BCL-xL Rep-1, 0.3125 uM, 0.3125 µM): 98.7717
- inhibition at 0.3125 µM (His-tagged BCL-xL; BCL-xL Rep-1, 0.3125 uM): 97.2%
- Alpha signal normalised to Maximum/Minimum (inhibition) (His-tagged BCL-xL; BCL-xL Rep-1, 1.25 uM, 1.25 µM): 99.2115
- inhibition at 1.25 µM (His-tagged BCL-xL; BCL-xL Rep-1, 1.25 uM): 98.7%
- Alpha signal normalised to Maximum/Minimum (inhibition) (His-tagged BCL-xL; BCL-xL Rep-1, 5 uM, 5 µM): 98.674
- inhibition at 5 µM (His-tagged BCL-xL; BCL-xL Rep-1, 5 uM): 99.7%
- Alpha signal (raw counts) (His-tagged BCL-xL; BCL-xL Rep-1, plate row B, 5 uM): 24284 and 38579
- Alpha signal (raw counts) (His-tagged BCL-xL; BCL-xL Rep-1, plate row C, 1.25 uM): 38335 and 30879
- Alpha signal (raw counts) (His-tagged BCL-xL; BCL-xL Rep-1, plate row D, 0.3125 uM): 59200 and 37180
- Alpha signal (raw counts) (His-tagged BCL-xL; BCL-xL Rep-1, plate row E, 0.078125 uM): 160796 and 165155
- Alpha signal (raw counts) (His-tagged BCL-xL; BCL-xL Rep-1, plate row F, 0.0195312 uM): 437862 and 392628
- Alpha signal (raw counts) (His-tagged BCL-xL; BCL-xL Rep-1, plate row G, 0.00488281 uM): 787377 and 721620
- Alpha signal (raw counts) (His-tagged BCL-xL; BCL-xL Rep-1, plate row H, 0.0012207 uM): 1053850 and 1038882
- Alpha signal (raw counts) (His-tagged BCL-xL; BCL-xL Rep-1, plate row I, 0.000305176 uM): 993971 and 1044138
- Alpha signal (raw counts) (His-tagged BCL-xL; BCL-xL Rep-1, plate row J, 7.62939e-5 uM): 1100587 and 1144199
- Alpha signal (raw counts) (His-tagged BCL-xL; BCL-xL Rep-1, plate row K, 1.90735e-5 uM): 1236998 and 1302696
- Alpha signal (raw counts) (His-tagged BCL-xL; BCL-xL Rep-2, 7.62939e-5 uM): 1461205 and 1360749
- Alpha signal normalised to Maximum/Minimum (inhibition) (His-tagged BCL-xL; BCL-xL Rep-2, 0.000305176 uM, 0.000305176 µM): 14.6957
- inhibition at 0.000305176 µM (His-tagged BCL-xL; BCL-xL Rep-2, 0.000305176 uM): 13%
- Alpha signal normalised to Maximum/Minimum (inhibition) (His-tagged BCL-xL; BCL-xL Rep-2, 0.0012207 uM, 0.0012207 µM): 16.3472
- inhibition at 0.0012207 µM (His-tagged BCL-xL; BCL-xL Rep-2, 0.0012207 uM): 24%
- Alpha signal normalised to Maximum/Minimum (inhibition) (His-tagged BCL-xL; BCL-xL Rep-2, 0.00488281 uM, 0.00488281 µM): 45.5298
- inhibition at 0.00488281 µM (His-tagged BCL-xL; BCL-xL Rep-2, 0.00488281 uM): 46%
- Alpha signal normalised to Maximum/Minimum (inhibition) (His-tagged BCL-xL; BCL-xL Rep-2, 0.0195312 uM, 0.0195312 µM): 63.2992
- inhibition at 0.0195312 µM (His-tagged BCL-xL; BCL-xL Rep-2, 0.0195312 uM): 60.9%
- Alpha signal normalised to Maximum/Minimum (inhibition) (His-tagged BCL-xL; BCL-xL Rep-2, 0.078125 uM, 0.078125 µM): 91.4929
- inhibition at 0.078125 µM (His-tagged BCL-xL; BCL-xL Rep-2, 0.078125 uM): 89.7%
- Alpha signal normalised to Maximum/Minimum (inhibition) (His-tagged BCL-xL; BCL-xL Rep-2, 0.3125 uM, 0.3125 µM): 98.2227
- inhibition at 0.3125 µM (His-tagged BCL-xL; BCL-xL Rep-2, 0.3125 uM): 97.4%
- Alpha signal normalised to Maximum/Minimum (inhibition) (His-tagged BCL-xL; BCL-xL Rep-2, 1.25 uM, 1.25 µM): 99.5826
- inhibition at 1.25 µM (His-tagged BCL-xL; BCL-xL Rep-2, 1.25 uM): 100%
- Alpha signal normalised to Maximum/Minimum (inhibition) (His-tagged BCL-xL; BCL-xL Rep-2, 5 uM, 5 µM): 99.8318
- inhibition at 5 µM (His-tagged BCL-xL; BCL-xL Rep-2, 5 uM): 99%
- Alpha signal (raw counts) (His-tagged BCL-xL; BCL-xL Rep-2, plate row B, 5 uM): 36635 and 25525
- Alpha signal (raw counts) (His-tagged BCL-xL; BCL-xL Rep-2, plate row C, 1.25 uM): 22256 and 28959
- Alpha signal (raw counts) (His-tagged BCL-xL; BCL-xL Rep-2, plate row D, 0.3125 uM): 58501 and 47695
- Alpha signal (raw counts) (His-tagged BCL-xL; BCL-xL Rep-2, plate row E, 0.078125 uM): 165323 and 140416
- Alpha signal (raw counts) (His-tagged BCL-xL; BCL-xL Rep-2, plate row F, 0.0195312 uM): 561843 and 528857
- Alpha signal (raw counts) (His-tagged BCL-xL; BCL-xL Rep-2, plate row G, 0.00488281 uM): 767546 and 773677
- Alpha signal (raw counts) (His-tagged BCL-xL; BCL-xL Rep-2, plate row H, 0.0012207 uM): 1070160 and 1175743
- Alpha signal (raw counts) (His-tagged BCL-xL; BCL-xL Rep-2, plate row I, 0.000305176 uM): 1221423 and 1198497
- Alpha signal (raw counts) (His-tagged BCL-xL; BCL-xL Rep-2, plate row K, 1.90735e-5 uM): 1346687 and 1389856
- Alpha signal normalised to Maximum/Minimum (inhibition) (His-tagged BCL-2; BCL-2 Rep-1, 0.000305176 uM, 0.000305176 µM): 59.5965
- inhibition at 0.000305176 µM (His-tagged BCL-2; BCL-2 Rep-1, 0.000305176 uM, read-out: Alpha signal normalised to Maximum/Minimum (inhibition)): 58.7%
- Alpha signal normalised to Maximum/Minimum (inhibition) (His-tagged BCL-2; BCL-2 Rep-1, 0.0012207 uM, 0.0012207 µM): 60.0938
- inhibition at 0.0012207 µM (His-tagged BCL-2; BCL-2 Rep-1, 0.0012207 uM, read-out: Alpha signal normalised to Maximum/Minimum (inhibition)): 49.1%
- Alpha signal normalised to Maximum/Minimum (inhibition) (His-tagged BCL-2; BCL-2 Rep-1, 0.00488281 uM, 0.00488281 µM): 80.812
- inhibition at 0.00488281 µM (His-tagged BCL-2; BCL-2 Rep-1, 0.00488281 uM, read-out: Alpha signal normalised to Maximum/Minimum (inhibition)): 82.4%
- Alpha signal normalised to Maximum/Minimum (inhibition) (His-tagged BCL-2; BCL-2 Rep-1, 0.0195312 uM, 0.0195312 µM): 99.3807
- inhibition at 0.0195312 µM (His-tagged BCL-2; BCL-2 Rep-1, 0.0195312 uM, read-out: Alpha signal normalised to Maximum/Minimum (inhibition)): 98.6%
- Alpha signal normalised to Maximum/Minimum (inhibition) (His-tagged BCL-2; BCL-2 Rep-1, 0.078125 uM, 0.078125 µM): 99.9974
- inhibition at 0.078125 µM (His-tagged BCL-2; BCL-2 Rep-1, 0.078125 uM, read-out: Alpha signal normalised to Maximum/Minimum (inhibition)): 100%
- Alpha signal normalised to Maximum/Minimum (inhibition) (His-tagged BCL-2; BCL-2 Rep-1, 0.3125 uM, 0.3125 µM): 99.341
- inhibition at 0.3125 µM (His-tagged BCL-2; BCL-2 Rep-1, 0.3125 uM, read-out: Alpha signal normalised to Maximum/Minimum (inhibition)): 98.9%
- Alpha signal normalised to Maximum/Minimum (inhibition) (His-tagged BCL-2; BCL-2 Rep-1, 1.25 uM, 1.25 µM): 100.024
- inhibition at 1.25 µM (His-tagged BCL-2; BCL-2 Rep-1, 1.25 uM, read-out: Alpha signal normalised to Maximum/Minimum (inhibition)): 99%
SMILES: CC1(C)CCC(c2ccc(Cl)cc2)=C(CN2CCN(c3ccc(C(=O)NS(=O)(=O)c4ccc(N[C@H](CCN5CCOCC5)CSc5ccccc5)c(S(=O)(=O)C(F)(F)F)c4)cc3)CC2)C1 [ABT263, navitoclax]

From PMC8617031, “Development of a BCL-xL and BCL-2 dual degrader with improved anti-leukemic activity,” (Nature Communications, 2021)
